Experimental findings from patent US20180362993A1, “ELICITOR-DERIVED PEPTIDES AND USE THEREOF” (Plant Health Care, Inc., priority 2017, published 2018) are described below.

Holding throughout (format): in vivo
The subject of one experiment is corn. The experiment is described as follows: Drought resistance in corn (foliar spray). Particulars: corn, vs untreated control. The method, then:
The effectiveness of peptide treatment in reducing drought stress was assessed in corn. 3.5 inch pots were filled with Sunshine #1 soil (SunGro Horticulture), fertilized with a 20-10-20 mixture. The soil was soaked and drained overnight. Seeds (either corn or soy, manually inspected to ensure uniform seed size) were planted at a depth of 1 inch for germination. Plants were grown in a greenhouse under 16 hour light days at >70° F. and 8 hour dark nights at >65° F. Prior to drought conditions, the plants were well-watered.
When the plants reached the V1 stage, plants were culled to achieve a uniform height (abnormally large and small plants were removed). Plants were then randomly assigned to control (spray without peptide) or treatment (spray with peptide) groups and heights were measured. Peptide was made up in a solution of 0.2 μg/ml or 2μg/ml in distilled water+0.01% Tween-20, and applied as a fine mist from a spray bottle until the solution drips from the leaves. After the peptide solutions were dried, the plants were again randomized in a randomized complete block design. Drought stress was initiated after the peptide treatment. This was caused by maintaining the water level at 25-50% of the maximum capacity for water (capacity was decided as the weight of the pot filled with saturated soil minus the weight of the filled pot prior to adding water).
The drought test phase ended after 2-3 weeks. At that time, the plant height was again measured and the growth rate was calculated as the difference between this and the previously-recorded height. The above-ground part portions of the plants were harvested and weighed to obtain fresh weight. The above-ground portion was also dried in an oven at 70° C. for 72 hours to obtain dry weight. All calculations were compared with matched untreated control plants.
The drought testing procedure was carried out in corn using a treatment of P12, P13-10, P13-11, P13-12, P13-14, P13-4, and P13-15 (SEQ ID NOs: 5, 16, 17, 18, 20, 10, and 21). Asterisks indicate statistical significance by P-value (*: P<0.1 and **: P<0.05)

The subject of experiment [1] is tobacco mosaic virus (TMV). Briefly: Induction of resistance to tobacco mosaic virus in tobacco (foliar spray). Particulars: 20 μg/ml spray; for Effectiveness Covered (% decline in TMV lesions vs UTC): covered leaf (systemic response); for Effectiveness Uncovered (% decline in TMV lesions vs UTC): uncovered leaf (local response). The method, then:
Peptides were tested for the induction of resistance to tobacco mosaic virus (TMV) in tobacco. Briefly, three tobacco plants at 6-8 weeks old were selected per group (samples and controls). The bottom-most leaf of the plant was covered and the plant was sprayed with a solution of water (untreated control—UTC), peptide, or Proact (positive control). The spray was applied until the leaves were fully wetted, indicated by liquid dripping from the leaves. The plants were then allowed to dry and the leaf covering was removed.
Three days post-treatment, the previously-covered leaf and a leaf on the opposite side of the plant were then lightly dusted with diatomaceous earth and 20 ul of a 1.7 μg/ml solution of purified tobacco mosaic virus was applied. The TMV solution was then spread across the leaf surface by lightly rubbing solution and the diatomaceous earth across the surface of the leaves. Two minutes after inoculation, the diatomaceous earth was rinsed off the leaves with water. 3 days after TMV inoculation, the leaves were scored based on the number of TMV lesions observed. The leaf was also scored for signs of the hypersensitive response, including yellowing and wilting of the affected leaves.
Effectiveness described in Table 5 refers to the % decline in TMV lesions on treated vs UTC plants. A reduction of TMV on covered leaves indicates a systemic immune response in the plant while reduction on uncovered leaves indicates a local response. Asterisks indicate that the P-value derived from a T-test was <0.05.

The test system of the next experiment is soy. Briefly: Drought resistance in seed-treated soy. Particulars: vs mock. The method, then:
The effectiveness of peptide treatment in reducing drought stress was assessed in soy using a seed treatment strategy. This strategy largely mirrors examples 3 and 4.
Seeds were first sieved using mesh screens to a uniform size (14-17 mesh). The seeds were then coated with a mixture of peptide and Unicoat™ seed coat polymer in a Hege 11 Liquid Seed Treater (Wintersteiger) according to manufacturer recommendations. […]
3.5 inch pots were filled (approximately 0.2 L per pot) with Sunshine #1 mix (SunGro Horticulture), fertilized with 14-14-14 N,P,K Osmocote (Everris), and mixed for 20 minutes using a soil mixer M-5. Seeds were planted at a depth of 0.5 inch for germination. The pots were immediately irrigated by submergence then drained after about an hour. For each treatment group, 24 replicate seeds were planted. Plants were grown in a greenhouse under 16 hour light days at ˜75° F. and 8 hour dark nights at ˜65° F. Prior to drought conditions, the plants were well-watered.
Seven days after germination the heights of the plants were measured. This was determined as the distance between the soil surface and the shoot apical meristems (buds). The plants were randomized using a complete block design and subjected to a cyclic drought stress. Drought stress was imposed by withholding water for 3-4 days until the majority of plants were under medium to severe water stress. The severity of the stress was determined by the weight of the pot and visual determination of loss of turgor in the leaves (drooping). Once drought stress was attained, the pots were watered to full saturation. Full Saturation (100% pot capacity) is defined as the weight of the pot filled with water-saturated soil minus the weight of the filled pot prior to adding water. Drought stress was imposed for a total of 18 days.
At the end of the experiment (18 days after initiation of drought stress), the plant above the soil surface was then harvested for fresh and dry weights. Individual plants were cut near the soil surface and weighed immediately (fresh weight). The plants were then placed into labeled brown paper bags and dried in a 70° C. oven for 72 hours. A dry weight was then obtained. The following calculation was performed on the collected data: Fresh weight at harvest, and dry weight at harvest for the peptide-treated plants were expressed as a % change relative to the ‘mock’ treated plants.

Marks after values point to notes of the source that are not given here.

On to “DDSLSGAGQTSGMSPMEQLMKIFADITQSLFGDQDG (P13-10 peptide) [Peptide P13-10]”, for which, in the experiment on corn (foliar spray 2 μg/ml), the “Dry Weight Increase” value is on record as 7.56* % and the “Fresh Weight Increase” value was 4.44%. Further, in experiment [1], the “Effectiveness Covered (% decline in TMV lesions vs UTC)” value is recorded as 92.4% and the “Effectiveness Uncovered (% decline in TMV lesions vs UTC)” value is listed as 90.6* %. Besides, in the experiment on soy (soy seed treatment 0.1 μg/seed), the “% Change Dry Weight” value is −1.66% and the “% Change Fresh Weight” value came to 1.01%.

As for “LSGAGQTSGMSPMEQLMKIFADITQSLFGDQDG (P13-11 peptide) [Peptide P13-11]”, in the experiment on corn (foliar spray 0.2 μg/ml), the “Dry Weight Increase” value is 4.91* % and the “Fresh Weight Increase” value is 3.81* %. For the same sequence, in experiment [1], the “Effectiveness Covered (% decline in TMV lesions vs UTC)” value was 73.1% and the “Effectiveness Uncovered (% decline in TMV lesions vs UTC)” value is recorded as 74.9* %. Further, in the experiment with soy (soy seed treatment 0.9 μg/seed), the “% Change Dry Weight” value was determined as 0.16% and the “% Change Fresh Weight” value came to 3.42%.
